The values below come from patent US20210063391A1, “METHODS AND SYSTEMS FOR BIOCELLULAR MARKER DETECTION AND DIAGNOSIS USING A MICROFLUIDIC PROFILING DEVICE” (The Regents of the University of Michigan, priority 2018, published 2021).

One assay deals with Stat1/3. Description: Inflammation signature quantification of treated PBMC lysates by microfluidic immunoblotting (p-Stat1, p-Stat3). The format is cell-based. From the text: An exemplary procedure for immunoblotting with a device of the present disclosure is as follows. A protein-containing sample is loaded into the wells of a gel (e.g., polyacrylamide gel) and proteins present in the sample are separated by gel electrophoresis (e.g., native gel electrophoresis, SDS-PAGE, etc.). A membrane (e.g., PVDF membrane) is placed atop the gel to allow transfer of the proteins onto the membrane. The membrane is then placed on a glass slide. A microfluidic device is placed on top of membrane, and the microfluidic channels are aligned with the protein lanes. Blocking buffer (e.g., Tween-20 and BSA) is optionally injected in each of the channels. In embodiments with a blocking step, the inlets/outlets of the channels are covered (e.g., with tape) to minimize evaporation during incubation. Antibodies are injected into the appropriate channels (e.g., different antibodies in each microchannel of a set). The inlets/outlets are covered (e.g., with tape) to minimize evaporation during incubation. Following incubation (e.g., 1 hours), the microfluidic device is removed, and the membrane is transferred to a solution of an appropriate secondary antibody (e.g., the membrane is left in this solution for 1 hour, or until the membrane is completely wet). The membrane is removed from the secondary antibody solution and washed with fresh blocking buffer (e.g., 3 minutes, 5 times each). The membrane is transferred to a developing solution (e.g., 30 minutes), and the membrane is removed and rinsed with DI water. The membrane is then allowed to dry. […]
(§1) FIGS. 2A-2B include representative graphs of inflammation signature quantification for PBMC lysates treated with LPS, Heparinase III and LPS+Heparinase III for 2 hours, according to one embodiment of the present disclosure. […]
(§2) FIGS. 3A-3B include representative graphs of inflammation signature quantification for PBMC lysates treated with Hyaluronidase (Hyal), Neuraminidase (Neu) and Spironolactone for 2 hours, according to one embodiment of the present disclosure. […]
(In general: A western blot detects proteins with antibodies after separation by electrophoresis.)

A further assay relates to p65. Description: Inflammation signature quantification of treated PBMC lysates by microfluidic immunoblotting (p-p65). As to conditions: PBMCs treated 2 hours. Type of assay: cell-based.
From the text: An exemplary procedure for immunoblotting with a device of the present disclosure is as follows. A protein-containing sample is loaded into the wells of a gel (e.g., polyacrylamide gel) and proteins present in the sample are separated by gel electrophoresis (e.g., native gel electrophoresis, SDS-PAGE, etc.). A membrane (e.g., PVDF membrane) is placed atop the gel to allow transfer of the proteins onto the membrane. The membrane is then placed on a glass slide. A microfluidic device is placed on top of membrane, and the microfluidic channels are aligned with the protein lanes. Blocking buffer (e.g., Tween-20 and BSA) is optionally injected in each of the channels. In embodiments with a blocking step, the inlets/outlets of the channels are covered (e.g., with tape) to minimize evaporation during incubation. Antibodies are injected into the appropriate channels (e.g., different antibodies in each microchannel of a set). […]
as §1, §2

Consider Heparinase III, for which the “activation of Stat1/3” value in the assay on Stat1/3 (PBMCs treated 2 hours, 1.5 U/mL Heparinase III, compared with 1 μg/ml LPS) is “leads to activation of Stat1/3, although not as much as LPS”. In the assay with Stat1/3 (PBMCs, 2 hours, Heparinase III 1.5 U/mL together with LPS 1 μg/ml), the “effect on LPS Stat1/3 response” value is listed as “attenuates LPS Stat1/3 response when done together”. In the assay with p65 (1.5 U/mL Heparinase III and/or 1 μg/ml LPS), the p65 activation entry is listed as “increases p65 activation though similar to LPS response”.

Regarding Neuraminidase, the Stat1/3 activation result with Stat1/3 (PBMCs treated 2 hours, 0.25 U/mL Neuraminidase vs 2 U/mL Hyaluronidase and 100 μM Spironolactone) was “increases Stat1/3 and p65 activation as compare to Hyal and Spiro”. Also, the p65 activation entry with p65 (0.25 U/mL Neuraminidase vs 2 U/mL Hyaluronidase and 100 μM Spironolactone) was “increases Stat1/3 and p65 activation as compare to Hyal and Spiro”.
